Results from patent US11998549B2, “Methods of treating a vascular leakage-associated disease or disorder” (UNITY HEALTH TORONTO, priority 2019, dated 2024).
“Also recorded” adds a separate entry of the source.

Assays:
[1] = test system: LPS-induced ROS production; test: ROS production (DCFH-DA) in LPS-treated zebrafish larvae; format: in vivo; settings: LPS 100 μg/ml + 1 μM UNC0642, 5 h
Procedure: ROS production was visualised using 2′, 7′-dichlorodihydrofluorescein diacetate (DCFH-DA; Sigma-Aldrich), a ROS indicator. Wildtype zebrafish were exposed to Vehicle, LPS (100 μg/ml) or LPS+1 μM UNC0642 by static immersion for 5 h at 28.5° C. and then incubated along with 100 μM DCFH-DA for 1 h at 28.5° C. in the dark, and washed three times (5 min each) with embryo water. DCFH-DA diffuses into cells and is deacetylated by cellular esterases to non-fluorescent 2′, 7′-Dichlorodihydrofluorescin (DCFH), which is rapidly oxidized to highly fluorescent 2′, 7′-Dichlorofluorescein (DCF) by ROS. The fluorescence intensity is propor-tional to the ROS levels within the cell cytosol. Photographs were acquired using a Leica DFC 300-FX camera and a Leica fluorescence microscope, and were processed with Fiji analysis software. Corrected total fluorescence (CTF) was calculated using the following formula: CTF=Integrated density−(Area of selected cell×Mean fluorescence of background readings) H3K9me2 Immunofluorescence Analysis

[2] = molecular target: T1, active human EHMT2/G9a protein fragment (Homo sapiens, UniProt Q96KQ7); test: G9a inhibitor in vitro histone methyltransferase assay; format: biochemical
T1 construct: active human EHMT2/G9a protein fragment (ab80323); purchased ab80323
T1 sequence (Q96KQ7 785-1210 limits assumed): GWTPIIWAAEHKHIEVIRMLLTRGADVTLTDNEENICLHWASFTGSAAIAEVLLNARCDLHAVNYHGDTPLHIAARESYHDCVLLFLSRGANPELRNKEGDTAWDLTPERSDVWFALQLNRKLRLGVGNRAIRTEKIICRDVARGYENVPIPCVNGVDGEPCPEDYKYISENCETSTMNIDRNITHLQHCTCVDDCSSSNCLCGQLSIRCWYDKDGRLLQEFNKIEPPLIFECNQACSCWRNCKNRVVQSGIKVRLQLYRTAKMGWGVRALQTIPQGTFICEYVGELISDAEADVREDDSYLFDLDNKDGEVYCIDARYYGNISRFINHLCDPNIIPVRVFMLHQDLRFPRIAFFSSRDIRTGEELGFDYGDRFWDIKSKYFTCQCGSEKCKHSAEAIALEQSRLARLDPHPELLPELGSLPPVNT
Source text: The commercially available Histone H3 (K9) Methyltransferase Activity Quantification Assay Kit (ab113453) was used for this assay and a modified protocol was adopted. Briefly, the histone substrate is stably captured on the strip wells. Uninhibited G9a methyltransferase (active human EHMT2/G9a protein fragment (ab80323)) will transfer a methyl group to histone H3 substrate from Adomet to methylate the substrate at lysine 9. The methylated histone H3K9 can be recognized with a high-affinity antibody. The ratio or amount of methylated H3K9, which is directly proportional to enzyme activity, can be quantified through HRP-conjugated secondary antibody color development system. In the presence of inhibitors of G9a methyltransferase, this reaction will be inhibited. […] The color should change to yellow and absorbance can be read on a microplate reader at 450 nm within 2-15 minutes.
G9a activity or inhibition was calculated as follows: plot OD value versus amount of G9a Standard and determine the slope. […]

[3] = test system: human umbilical vein endothelial cells (HUVECs); test: FITC dextran leakage assay in HUVEC monolayer; format: cell-based; settings: HUVEC on transwell, LPS 1 μg/ml + UNC0642 2.5 nM
Procedure: (§1) To determine the functional significance of G9a inhibition in human cells, solute permeability and electrical resistance across a confluent HUVEC monolayer was assessed. For both experiments, HUVEC were seeded at 1×10^6 cells/ml on Matrigel™ coated 3-μm pore size transwell inserts in 24-well plates from BD Discovery Labware™ (catalog number 354575) and grown to confluency. The cells were then treated with either the vehicle, LPS (1 μg/ml) or LPS (1 μg/ml)+UNC0642 (2.5 nM).
Assessment of Paracellular Permeability: Dextran sulfate-FITC (3 kD, Invitrogen™ Molecular Probes catalog number D-3306) was added to the lower chamber to a final concentration of 10 μg/ml. Simultaneously, the different treatment conditions mentioned above were added to the lower chamber. FITC fluorescence was measured at different time intervals (0 h, 1.5 h, 2.5 h, 24 h) in samples taken from the top chamber as a measure of paracellular dextran leak. […] (FIG. 11, Panel A)

HUVEC monolayer = test: Trans-endothelial electrical resistance (TEER) across HUVEC monolayer; format: cell-based, human; settings: LPS 1 μg/ml + UNC0642 2.5 nM, 24 h post treatment
Procedure: as §1
Assessment of trans-endothelial electrical resistance (TEER): At 24 h post treatment, trans endothelial electrical resistance across the HUVEC monolayer was measured using the Endohm-12 (WPI, Florida). UNC0642 improves transendothelial electrical resistance (TEER) which is also an indicator of vessel integrity and stability. (FIG. 11, Panel B)

H3K9me2 in HPMECs = test: H3K9me2 Western blot in LPS-treated HPMECs; format: cell-based, human; settings: LPS 1 ug/ml +/- UNC0642 2.5 nM, 24 hours

COc1cc2c(NC3CCN(C(C)C)CC3)nc(N3CCC(F)(F)CC3)nc2cc1OCCCN1CCCC1 [UNC0642, 2-(4,4-Difluoropiperidin-1-yl)-6-methoxy-N-[1-(propan-2-yl)piperidin-4-yl]-7-(3-(pyrrolidin-1-yl)propoxy]quinazolin-4-amine]
Reduction of LPS-induced ROS production [1]: 40%
G9a methyltransferase activity [2]: inhibits G9a methyltransferase activity in a dose dependent manner
LPS induced vessel permeability (FITC dextran leakage) [3]: protects against LPS induced vessel permeability
Transendothelial electrical resistance (TEER) (HUVEC monolayer): improves
H3K9me2 by Western Blot (H3K9me2 in HPMECs): decreased H3K9me2; also recorded: reduction in this H3K9me2
